Measurements published in PMC7567334 (Environmental Health Perspectives, 2020).

Tests used:
AroB transcription = conditions: 0.25 μM triclocarban added to 1 nM E2; zebrafish embryos; ref Chung et al. 2011; cited from earlier work
human (h) ERα [1] = biological target: T1, human (h) ERα (Homo sapiens, UniProt P03372); conditions: test for false positivity
T1 sequence (P03372 1-595): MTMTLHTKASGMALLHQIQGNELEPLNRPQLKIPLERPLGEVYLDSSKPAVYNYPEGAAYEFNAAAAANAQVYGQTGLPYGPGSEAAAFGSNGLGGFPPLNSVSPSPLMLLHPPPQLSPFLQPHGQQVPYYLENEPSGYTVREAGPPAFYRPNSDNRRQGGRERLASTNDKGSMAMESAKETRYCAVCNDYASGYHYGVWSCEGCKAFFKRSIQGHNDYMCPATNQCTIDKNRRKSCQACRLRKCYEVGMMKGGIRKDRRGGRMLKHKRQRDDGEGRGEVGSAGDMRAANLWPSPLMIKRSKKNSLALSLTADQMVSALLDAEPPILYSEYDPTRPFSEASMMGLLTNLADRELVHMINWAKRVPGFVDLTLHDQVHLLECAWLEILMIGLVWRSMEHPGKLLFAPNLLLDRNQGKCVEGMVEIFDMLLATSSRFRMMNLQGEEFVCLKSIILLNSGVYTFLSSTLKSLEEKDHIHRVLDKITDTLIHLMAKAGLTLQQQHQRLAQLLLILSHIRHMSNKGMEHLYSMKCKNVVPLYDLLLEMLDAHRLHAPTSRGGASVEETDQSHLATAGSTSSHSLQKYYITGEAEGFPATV

AR-EcoScreen cells = assay: Cell viability (resazurin) in AR-EcoScreen cells; conditions: agonist assay
human (h)AR = biological target: T2, human (h)AR (Homo sapiens, UniProt P10275); assay: AR-EcoScreen hAR transcriptional activation assay, antagonist setup (500 pM DHT); format: cell-based; conditions: vs 0.1% DMSO with 500 pM DHT
T2 sequence (P10275 1-920): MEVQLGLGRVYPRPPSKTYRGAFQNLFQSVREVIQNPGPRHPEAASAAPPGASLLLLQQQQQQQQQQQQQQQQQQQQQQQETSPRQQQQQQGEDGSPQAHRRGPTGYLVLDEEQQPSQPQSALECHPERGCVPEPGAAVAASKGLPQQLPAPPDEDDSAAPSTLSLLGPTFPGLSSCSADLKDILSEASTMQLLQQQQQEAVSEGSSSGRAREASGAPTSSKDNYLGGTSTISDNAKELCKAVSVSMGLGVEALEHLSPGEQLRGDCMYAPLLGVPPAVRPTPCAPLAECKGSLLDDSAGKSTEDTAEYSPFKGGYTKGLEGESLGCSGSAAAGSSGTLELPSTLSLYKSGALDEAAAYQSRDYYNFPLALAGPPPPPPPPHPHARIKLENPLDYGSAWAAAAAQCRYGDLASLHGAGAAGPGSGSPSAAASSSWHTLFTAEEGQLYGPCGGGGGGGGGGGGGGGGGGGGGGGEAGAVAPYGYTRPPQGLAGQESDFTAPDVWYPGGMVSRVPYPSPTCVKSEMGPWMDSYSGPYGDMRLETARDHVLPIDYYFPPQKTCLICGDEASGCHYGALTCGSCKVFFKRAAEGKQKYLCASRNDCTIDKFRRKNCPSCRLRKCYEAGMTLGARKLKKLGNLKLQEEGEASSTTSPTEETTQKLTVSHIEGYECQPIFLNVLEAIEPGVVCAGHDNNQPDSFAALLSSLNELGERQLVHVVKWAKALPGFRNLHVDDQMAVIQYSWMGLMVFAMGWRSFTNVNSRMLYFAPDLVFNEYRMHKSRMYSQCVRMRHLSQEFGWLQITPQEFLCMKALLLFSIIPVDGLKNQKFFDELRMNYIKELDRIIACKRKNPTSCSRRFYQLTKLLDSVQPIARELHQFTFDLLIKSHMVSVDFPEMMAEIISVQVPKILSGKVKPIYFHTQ

Glucocorticoid receptor = conditions: ref Kolšek et al. 2014a, cited from earlier work
GR = biological target: T3, GR (Homo sapiens, UniProt P04150); assay: MDA-kb2 GR reporter assay, agonist setup (with FLU); format: cell-based; design: constitutively expressed high levels of functional GR and AR; host or cells: MDA-kb2; conditions: MDA-kb2
T3 sequence (P04150 1-777): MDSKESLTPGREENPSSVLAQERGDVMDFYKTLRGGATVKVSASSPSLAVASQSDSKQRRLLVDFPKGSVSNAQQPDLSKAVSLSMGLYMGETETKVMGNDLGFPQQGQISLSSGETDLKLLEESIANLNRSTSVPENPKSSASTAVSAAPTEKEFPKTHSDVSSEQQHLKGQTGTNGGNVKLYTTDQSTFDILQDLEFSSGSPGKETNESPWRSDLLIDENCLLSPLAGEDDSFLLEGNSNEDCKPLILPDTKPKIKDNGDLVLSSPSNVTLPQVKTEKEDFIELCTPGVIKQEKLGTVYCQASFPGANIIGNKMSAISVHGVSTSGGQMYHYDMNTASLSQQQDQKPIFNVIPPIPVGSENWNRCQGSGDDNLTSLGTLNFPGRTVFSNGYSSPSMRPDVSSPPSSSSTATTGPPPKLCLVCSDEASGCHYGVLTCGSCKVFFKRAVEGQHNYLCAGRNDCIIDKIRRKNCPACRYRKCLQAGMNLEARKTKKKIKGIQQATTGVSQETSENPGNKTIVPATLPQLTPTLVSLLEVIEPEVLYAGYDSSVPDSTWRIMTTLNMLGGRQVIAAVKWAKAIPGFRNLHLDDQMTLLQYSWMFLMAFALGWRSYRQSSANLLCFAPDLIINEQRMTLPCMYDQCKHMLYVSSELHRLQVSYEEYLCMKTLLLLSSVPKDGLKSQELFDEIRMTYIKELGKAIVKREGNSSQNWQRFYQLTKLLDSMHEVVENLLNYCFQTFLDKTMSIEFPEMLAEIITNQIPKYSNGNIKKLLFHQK

human (h) ERα [2] = biological target: T1, human (h) ERα; assay: hERα-HeLa-9903 transactivation assay, agonist setup; format: cell-based; design: host or cells: hERα-HeLa-9903 (HeLa derived); conditions: for higher ERα RTA than vehicle control: vs 0.1% DMSO
firefly luciferase = biological target: T4, firefly luciferase (Photinus pyralis, UniProt P08659); assay: Luciferase inhibition assay in GH3.TRE-Luc cell lysates; format: biochemical; conditions: cell lysate, read-out: inhibition of firefly luciferase luminescence signal
T4 construct: Only implied by 'CP' in the vector name, from my own knowledge; expressed in transfected cells; host or cells: GH3.TRE-Luc cells induced with 0.25 nM T3, lysate
Protocol: Serial dilutions for each treatment were prepared in the cell lysate and incubated at room temperature for 30 min.

T4 sequence (P08659 whole entry): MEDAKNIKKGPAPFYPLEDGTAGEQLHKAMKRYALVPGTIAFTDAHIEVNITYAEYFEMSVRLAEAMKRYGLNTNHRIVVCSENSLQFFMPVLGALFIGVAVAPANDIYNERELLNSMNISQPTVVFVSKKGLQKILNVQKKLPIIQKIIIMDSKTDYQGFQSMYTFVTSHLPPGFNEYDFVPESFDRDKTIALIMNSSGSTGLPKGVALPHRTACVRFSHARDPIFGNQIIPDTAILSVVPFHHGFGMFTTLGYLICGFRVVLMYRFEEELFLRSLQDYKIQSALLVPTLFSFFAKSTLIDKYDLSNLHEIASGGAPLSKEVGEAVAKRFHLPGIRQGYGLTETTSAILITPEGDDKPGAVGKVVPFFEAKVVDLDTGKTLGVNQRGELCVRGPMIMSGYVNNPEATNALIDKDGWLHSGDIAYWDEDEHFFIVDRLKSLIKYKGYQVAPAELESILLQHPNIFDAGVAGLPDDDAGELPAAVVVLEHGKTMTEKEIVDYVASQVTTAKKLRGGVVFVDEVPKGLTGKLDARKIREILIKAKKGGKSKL

SMILES: O=C(Nc1ccc(Cl)cc1)Nc1ccc(Cl)c(Cl)c1 [Triclocarban, 1-(4-Chlorophenyl)-3-(3,4-dichlorophenyl) urea]
- increase in AroB transcription (AroB transcription): 18 fold
- estrogenic effect in presence of ER antagonist 10 μM hydroxytamoxifen (human (h) ERα [1]): blocked all
- highest noncytotoxic concentration (AR-EcoScreen cells): 2.5 µM
- higher AR RTA than spike-in control (human (h)AR; 1 μM): 30.7%
- higher AR RTA than spike-in control (human (h)AR; 2.5 μM): 39.4%
- effect on GR with HC (Glucocorticoid receptor; MDA-kb2 cells): Enhancer of HC activity in MDA-kb2 cells ([Kolšek et al. 2014a])
- concentration with enhanced HC activity on GR (Glucocorticoid receptor): 2 µM
- GR agonist activity (GR): no GR agonist activity
- higher ERα RTA than vehicle control (human (h) ERα [2]; 1 μM): 53%
- higher ERα RTA than vehicle control (human (h) ERα [2]; 5 μM): 58%
- ERα agonist activity, call (human (h) ERα [2]; hERα-HeLa-9903): Agonist
- concentration with ERα agonist activity (human (h) ERα [2]; hERα-HeLa-9903): 1 to 5 µM
- inhibition at 50 µM (firefly luciferase): 46.7%
